In patent US8895613B2 (priority 2013, dated 2014):

Target: neuraminidase of Oseltamivir resistant virus of A/Vladivostok/16/09 (H1N1) influenza (Influenza A virus, UniProt C3W5S3)

CCC(CC)O[C@@H]1C=C(C(=O)O)C[C@H](NC(=N)N)[C@H]1NC(=O)CF [1.1, (3R,4R,5S)-5-guanidino-4-fluoroacetamido-3-(pentan-3-yloxy)cyclohex-1-enecarboxylic acid]
more active than A2 by factor: 207
more active than A4 by factor: 250

CCC(CC)O[C@@H]1C=C(C(=O)O)C[C@H](NC(=N)N)[C@H]1NC(=O)C(F)F [1.4, (3R,4R,5S)-5-guanidino-4-difluoroacetamido-3-(pentan-3-yloxy)cyclohex-1-enecarboxylic acid]
more active than A2 by factor: 118
more active than A4 by factor: 140
